# Assay results reported in publication PMC4014619, “Slc26a7 Chloride Channel Activity and Localization in Mouse Reissner’s Membrane Epithelium” (PLoS ONE, 2014).
# Target: T1, Slc26a7 (Mus musculus, UniProt Q8R2Z3)
# T1 construct: native full-length channel in Reissner's membrane epithelial cells (basolateral membrane); Slc26a7 knockout mice as control
# T1 sequence (Q8R2Z3 1-656): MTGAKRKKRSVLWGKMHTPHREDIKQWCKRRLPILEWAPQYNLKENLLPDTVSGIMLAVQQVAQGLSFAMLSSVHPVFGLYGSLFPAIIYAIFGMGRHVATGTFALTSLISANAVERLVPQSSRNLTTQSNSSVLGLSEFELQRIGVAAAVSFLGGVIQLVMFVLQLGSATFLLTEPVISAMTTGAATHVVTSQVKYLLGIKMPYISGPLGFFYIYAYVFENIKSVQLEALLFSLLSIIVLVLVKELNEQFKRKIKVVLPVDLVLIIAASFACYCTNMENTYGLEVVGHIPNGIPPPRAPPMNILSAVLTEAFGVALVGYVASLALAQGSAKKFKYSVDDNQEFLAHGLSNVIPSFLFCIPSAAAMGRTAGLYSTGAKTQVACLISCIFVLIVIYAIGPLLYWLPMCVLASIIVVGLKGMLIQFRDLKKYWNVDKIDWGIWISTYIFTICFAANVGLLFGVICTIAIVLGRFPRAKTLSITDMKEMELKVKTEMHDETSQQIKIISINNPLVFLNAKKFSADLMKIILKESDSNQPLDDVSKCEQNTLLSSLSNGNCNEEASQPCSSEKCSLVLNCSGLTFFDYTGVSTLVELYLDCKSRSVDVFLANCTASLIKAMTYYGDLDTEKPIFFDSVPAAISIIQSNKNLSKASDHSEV
# Assay: whole-cell patch clamp, wild-type versus Slc26a7 knockout native epithelial cells
# Format: cell-based
# Settings: NMDG-Cl pipette, NO3-rich versus Cl-rich bath, +80 mV, pH 7.3, 37 °C; native cells with other anion channels present
compound,measurement,value
O=[N+]([O-])O [NO3 ^−],"whole-cell patch clamp, wild-type versus Slc26a7 knockout native epithelial cell",elevated NO3 ^− current in wild-type cells being mediated by the Slc26a7 Cl^− channel
